Data published in patent US20240156755A1, “USE OF RIP1 INHIBITOR OR MLKL INHIBITOR FOR TREATING OR PREVENTING HEREDITARY RETINAL DYSTROPHY” (TZU CHI UNIVERSITY, priority 2022, published 2024).
“Also recorded” adds a separate entry of the source.

Experiments:
[1] = test system: POMGNT1 knockout human RPE cells; experiment: Trans-epithelial electrical resistance (TEER) of RPE monolayers; type: cell-based; conditions: transwell culture
Procedure: The RPE is a polarized epithelial monolayer which lies between the photoreceptors and the choroid. The RPE is essential to keep neural retinal healthy by maintenance of many important functions including light absorption, trans-epithelial transport, phagocytosis, and secretion of growth factors. The feature of healthy RPE is the generation of a trans-epithelial electrical resistance by specific tight junctions between epithelial cells. Trans-epithelial electrical resistance (TEER) was determined in RPE monolayers in WT and POMGNT1 knockout cells using Millicell-ERS Voltmeter (MERS00002, EMD Millipore) with transwell culture to evaluate the cell monolayer integrity.
POMGNT1 knockout human RPE cell were treated with RIPA-56, a potent, selective RIP1 inhibitor or with GW806742X, a MLKL inhibitor.

Pomgnt1^L120R/L120R mice = experiment: Scotopic ERG after treatment of Pomgnt1^L120R/L120R mice; type: in vivo; conditions: 6-month-old mice, 3 months after injection; compared with AAV8-GFP treated group; RIPA-56 10 mg/Kg twice a week IP; AAV 1 μL 1×10^9 vg subretinal
Procedure: To evaluate retinal function in vivo, ERG was recorded with various light stimulus intensities under dark-adapted scotopic condition. Scotopic ERG records rod photoreceptor (a-wave), signal from rod to rod bipolar cell (b-wave), and retinal pigment epithelium (c-wave). […] This reduction in ERG a-, b, and c-wave amplitude indicated the function of rod photoreceptor, rod bipolar cells post-synaptic signal and RPE were greatly affected in Pomgnt1^L120R/L120R mouse retina.

[2] = test system: POMGNT1 knockout human RPE cells; experiment: Immunoblotting of autophagy-related proteins and necroptosis markers; type: cell-based

SMILES | TEER level [1] | scotopic ERG a-, b-, and c-wave amplitudes (Pomgnt1^L120R/L120R mice) | expression of beclin1, p62 and LC3b [2] | phospho-RIP3 and phosphor-MLKL [2]
CCC(C)(C)C(=O)N(O)Cc1ccccc1 [RIPA-56] | significant improvement; also recorded: improve | significantly improved | significantly decrease | inhibit
CN(c1ccc(NC(=O)Nc2ccc(OC(F)(F)F)cc2)cc1)c1ccnc(Nc2cccc(S(N)(=O)=O)c2)n1 [GW806742X] | significant improvement |  |  | 
